Target: T1, PD-1/PD-L1 protein/protein interaction (Homo sapiens, UniProt Q9NZQ7)
T1 construct: Recombinant human PD-L1 protein (19-238) with a His-tag at the C-terminus; purchased AcroBiosystems PD1-H5229 (PD-L1); PD1-H5257 (PD-1)
Test: PD-1/PD-L1 homogenous time-resolved fluorescence (HTRF) binding assay
Description: Resolved Fluorescence (HTRF) Binding Assay
The assays were conducted in a standard black 384-well polystyrene plate with a final volume of […]. Inhibitors were first serially diluted in DMSO and then added to the plate wells before the addition of other reaction components. The final concentration of DMSO in the assay was 1%. The assays were carried out at 25° C. in the PBS buffer (pH 7.4) with 0.05% Tween-20 and 0.1% BSA. […] Plates were centrifuged and proteins were preincubated with inhibitors for 40 min. The incubation was followed by the addition of 10 μL of HTRF detection buffer supplemented with Europium cryptate-labeled anti-human IgG (PerkinElmer-AD0212) specific for Fc and anti-His antibody conjugated to SureLight®—Allophycocyanin (APC, PerkinElmer-AD0059H). After centrifugation, the plate was incubated at 25° C. for 60 min. […] Final concentrations in the assay were […] PD1, 10 nM PD-L1, 1 nM europium anti-human IgG and 20 nM anti-His-Allophycocyanin. IC50 determination was performed by fitting the curve of percent control activity versus the log of the inhibitor concentration using the GraphPad Prism 5.0 software.

T1 sequence (Q9NZQ7 19-238): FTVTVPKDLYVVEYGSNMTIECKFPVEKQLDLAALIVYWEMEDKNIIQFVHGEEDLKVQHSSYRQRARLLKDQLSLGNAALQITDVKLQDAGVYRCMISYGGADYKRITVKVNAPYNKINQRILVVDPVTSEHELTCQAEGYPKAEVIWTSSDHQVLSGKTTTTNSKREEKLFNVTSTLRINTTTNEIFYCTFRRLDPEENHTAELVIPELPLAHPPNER

| Structure (SMILES) | IC50 |
| --- | --- |
| Cc1c(Nc2nccc3cc(CN4CCCCC4C(=O)O)cnc23)cccc1-c1cccc(OCCCNCC(=O)O)c1C (centres unmarked) [Compound 28, 1-((8-((3′-(3-((carboxymethyl)amino)propoxy)-2,2′-dimethyl-[1,1′-biphenyl]-3-yl)amino)-1,7-naphthyridin-3-yl)methyl)piperidine-2-carboxylic acid] | < 2 nM |
| Cc1c(Nc2nccc3cc(CN4CCCCC4C(=O)O)cnc23)cccc1-c1cccc(OCCCN2CCCC2C(=O)O)c1C (centres unmarked) [Compound 29, 1-((8-((3′-(3-(2-carboxypyrrolidin-1-yl)propoxy)-2,2′-dimethyl-[1,1′-biphenyl]-3-yl)amino)-1,7-naphthyridin-3-yl)methyl)piperidine-2-carboxylic acid] | 2 to 10 nM |
| Cc1c(Nc2nccc3cc(CN4CCCCC4C(=O)O)cnc23)cccc1-c1cccc(OCCCN2CCC(C(=O)O)CC2)c1C (centres unmarked) [Compound 30, 1-((8-((3′-(3-(4-carboxypiperidin-1-yl)propoxy)-2,2′-dimethyl-[1,1′-biphenyl]-3-yl)amino)-1,7-naphthyridin-3-yl)methyl)piperidine-2-carboxylic acid] | 2 to 10 nM |
| Cc1c(Nc2nccc3cc(CN4CCCCC4C(=O)O)cnc23)cccc1-c1cccc(OCCN2CCOCC2)c1C (centres unmarked) [Compound 31, 1-((8-((2,2′-dimethyl-3′-(2-morpholinoethoxy)-[1,1′-biphenyl]-3-yl)amino)-1,7-naphthyridin-3-yl)methyl)piperidine-2-carboxylic acid] | 10 to 150 nM |
| Cc1c(Nc2nccc3cc(CN4CCCCC4C(=O)O)cnc23)cccc1-c1ccc2ccc(OCCN3CCOCC3)cc2c1 (centres unmarked) [Compound 32, 1-((8-((2-methyl-3-(7-(2-morpholinoethoxy)naphthalen-2-yl)phenyl)amino)-1,7-naphthyridin-3-yl)methyl)piperidine-2-carboxylic acid] | > 150 nM |
| Cc1c(Nc2nccc3cc(CN4CCCCC4C(=O)O)cnc23)cccc1-c1cccc(OCCCNC2COC2)c1 (centres unmarked) [Compound 33, 1-((8-((2-methyl-3′-(3-(oxetan-3-ylamino)propoxy)-[1,1′-biphenyl]-3-yl)amino)-1,7-naphthyridin-3-yl)methyl)piperidine-2-carboxylic acid] | < 2 nM |
| Cc1c(Nc2nccc3cc(CN4CCCCC4C(=O)O)cnc23)cccc1-c1cccc2c1ccn2CCCN1CCOCC1 (centres unmarked) [Compound 34, 1-((8-((2-methyl-3-(1-(3-morpholinopropyl)-1H-indol-4-yl)phenyl)amino)-1,7-naphthyridin-3-yl)methyl)piperidine-2-carboxylic acid] | > 150 nM |
| Cc1c(Nc2nccc3cc(CN4CCCCC4C(=O)O)cnc23)cccc1-c1ccc2cc(CCN3CCOCC3)[nH]c2c1 (centres unmarked) [Compound 35, 1-((8-((2-methyl-3-(2-(2-morpholinoethyl)-1H-indol-6-yl)phenyl)amino)-1,7-naphthyridin-3-yl)methyl)piperidine-2-carboxylic acid] | > 150 nM |
| Cc1c(Nc2nccc3cc(CN4CCCCC4C(=O)O)cnc23)cccc1-c1cccc(OCCCN2CCOCC2)c1 (centres unmarked) [Compound 36, 1-((8-((2-methyl-3′-(3-morpholinopropoxy)-[1,1′-biphenyl]-3-yl)amino)-1,7-naphthyridin-3-yl)methyl)piperidine-2-carboxylic acid] | 2 to 10 nM |
| Cc1c(Nc2nccc3cc(CN4CCCCC4C(=O)O)cnc23)cccc1-c1cccc(OCCCN2CCOCC2)c1F (centres unmarked) [Compound 37, 1-((8-((2′-fluoro-2-methyl-3′-(3-morpholinopropoxy)-[1,1′-biphenyl]-3-yl)amino)-1,7-naphthyridin-3-yl)methyl)piperidine-2-carboxylic acid] | 2 to 10 nM |
| Cc1c(Nc2nccc3cc(CN4CCCCC4C(=O)O)cnc23)cccc1-c1cccc(OCCCN2CCOCC2)c1Cl (centres unmarked) [Compound 38, 1-((8-((2′-chloro-2-methyl-3′-(3-morpholinopropoxy)-[1,1′-biphenyl]-3-yl)amino)-1,7-naphthyridin-3-yl)methyl)piperidine-2-carboxylic acid] | 2 to 10 nM |
| Cc1c(Nc2nccc3cc(CN4CCCCC4C(=O)O)cnc23)cccc1-c1cccc(OCCCN2CCOCC2)c1C#N (centres unmarked) [Compound 39, 1-((8-((2′-cyano-2-methyl-3′-(3-morpholinopropoxy)-[1,1′-biphenyl]-3-yl)amino)-1,7-naphthyridin-3-yl)methyl)piperidine-2-carboxylic acid] | 2 to 10 nM |
| Cc1c(Nc2nccc3cc(CN4CCCCC4C(=O)O)cnc23)cccc1-c1ccc(F)c(OCCCN2CCOCC2)c1 (centres unmarked) [Compound 40, 1-((8-((4′-fluoro-2-methyl-3′-(3-morpholinopropoxy)-[1,1′-biphenyl]-3-yl)amino)-1,7-naphthyridin-3-yl)methyl)piperidine-2-carboxylic acid] | 2 to 10 nM |

Other lines, results leading:

| IC50 | Structure (SMILES) |
| --- | --- |
| > 150 nM | Cc1ccc(-c2cccc(Nc3nccc4cc(CN5CCCCC5C(=O)O)cnc34)c2C)c(C)c1OCCCN1CCOCC1 (centres unmarked) [Compound 41, 1-((8-((2,2′,4′-trimethyl-3′-(3-morpholinopropoxy)-[1,1′-biphenyl]-3-yl)amino)-1,7-naphthyridin-3-yl)methyl)piperidine-2-carboxylic acid] |
| 2 to 10 nM | Cc1ccc(-c2cccc(Nc3nccc4cc(CN5CCCCC5C(=O)O)cnc34)c2C)cc1OCCCN1CCOCC1 (centres unmarked) [Compound 42, 1-((8-((2,4′-dimethyl-3′-(3-morpholinopropoxy)-[1,1′-biphenyl]-3-yl)amino)-1,7-naphthyridin-3-yl)methyl)piperidine-2-carboxylic acid] |
| 2 to 10 nM | Cc1c(Nc2nccc3cc(CN4CCCCC4C(=O)O)cnc23)cccc1-c1ccc(Cl)c(OCCCN2CCOCC2)c1 (centres unmarked) [Compound 43, 1-((8-((4′-chloro-2-methyl-3′-(3-morpholinopropoxy)-[1,1′-biphenyl]-3-yl)amino)-1,7-naphthyridin-3-yl)methyl)piperidine-2-carboxylic acid] |
| < 2 nM | Cc1c(Nc2nccc3cc(CNCC(=O)O)cnc23)cccc1-c1ccc(Cl)c(OCCCN2CCOCC2)c1 [Compound 44, ((8-((4′-chloro-2-methyl-3′-(3-morpholinopropoxy)-[1,1′-biphenyl]-3-yl)amino)-1,7-naphthyridin-3-yl)methyl)glycine] |
| < 2 nM | Cc1c(Nc2nccc3cc(CNCC(=O)O)cnc23)cccc1-c1cccc(OCCCN2CCOCC2)c1Cl [Compound 45, ((8-((2′-chloro-2-methyl-3′-(3-morpholinopropoxy)-[1,1′-biphenyl]-3-yl)amino)-1,7-naphthyridin-3-yl)methyl)glycine] |
| 10 to 150 nM | Cc1c(Nc2nccc3cc(CNCC(=O)O)cnc23)cccc1-c1cncc(OCCCN2CCOCC2)c1C [Compound 46, ((8-((2-methyl-3-(4-methyl-5-(3-morpholinopropoxy)pyridin-3-yl)phenyl)amino)-1,7-naphthyridin-3-yl)methyl)glycine] |
| < 2 nM | Cc1c(COCCN2CCOCC2)cccc1-c1cccc(Nc2nccc3cc(CN4CCCCC4C(=O)O)cnc23)c1C (centres unmarked) [Compound 47, 1-((8-((2,2′-dimethyl-3′-((2-morpholinoethoxy)methyl)-[1,1′-biphenyl]-3-yl)amino)-1,7-naphthyridin-3-yl)methyl)piperidine-2-carboxylic acid] |
| 2 to 10 nM | Cc1c(NCCCN2CCOCC2)cccc1-c1cccc(Nc2nccc3cc(CN4CCCCC4C(=O)O)cnc23)c1C (centres unmarked) [Compound 48, 1-((8-((2,2′-dimethyl-3′-((3-morpholinopropyl)amino)-[1,1′-biphenyl]-3-yl)amino)-1,7-naphthyridin-3-yl)methyl)piperidine-2-carboxylic acid] |
| 2 to 10 nM | Cc1c(NC(=O)CCN2CCOCC2)cccc1-c1cccc(Nc2nccc3cc(CN4CCCCC4C(=O)O)cnc23)c1C (centres unmarked) [Compound 49, 1-((8-((2,2′-dimethyl-3′-(3-morpholinopropanamido)-[1,1′-biphenyl]-3-yl)amino)-1,7-naphthyridin-3-yl)methyl)piperidine-2-carboxylic acid] |
| > 150 nM | Cc1c(Nc2nccc3cc(CN4CCCCC4C(=O)O)cnc23)cccc1-c1cccc(N(C)C(=O)CCN2CCOCC2)c1C (centres unmarked) [Compound 50, 1-((8-((2,2′-dimethyl-3′-(N-methyl-3-morpholinopropanamido)-[1,1′-biphenyl]-3-yl)amino)-1,7-naphthyridin-3-yl)methyl)piperidine-2-carboxylic acid] |
| > 150 nM | Cc1c(NC(=O)NCCNCCO)cccc1-c1cccc(Nc2nccc3cc(CN4CCCCC4C(=O)O)cnc23)c1C (centres unmarked) [Compound 51, 1-((8-((3′-(3-(2-((2-hydroxyethyl)amino)ethyl)ureido)-2,2′-dimethyl-[1,1′-biphenyl]-3-yl)amino)-1,7-naphthyridin-3-yl)methyl)piperidine-2-carboxylic acid] |
| > 150 nM | Cc1c(Nc2nccc3cc(CN4CCCCC4C(=O)O)cnc23)cccc1-c1cccc(N(C)CCCN2CCOCC2)c1C (centres unmarked) [Compound 52, 1-((8-((2,2′-dimethyl-3′-(methyl(3-morpholinopropyl)amino)-[1,1′-biphenyl]-3-yl)amino)-1,7-naphthyridin-3-yl)methyl)piperidine-2-carboxylic acid] |
| > 150 nM | Cc1c(NC(=O)NCCN2CCOCC2)cccc1-c1cccc(Nc2nccc3cc(CN4CCCCC4C(=O)O)cnc23)c1C (centres unmarked) [Compound 53, 1-((8-((2,2′-dimethyl-3′-(3-(2-morpholinoethyl)ureido)-[1,1′-biphenyl]-3-yl)amino)-1,7-naphthyridin-3-yl)methyl)piperidine-2-carboxylic acid] |

Reference: US20210269440A1 (BETTA PHARMACEUTICALS CO., LTD, priority 2018, published 2021)
